Assay results published in ChEMBL document CHEMBL4316582, “Nitro-Group-Containing Drugs” (J Med Chem, 2019).
In brackets after ≈: the same amount, converted by molar mass.

Tested on: Mycobacterium tuberculosis
Assay: Antitubercular activity against multidrug-resistant Mycobacterium tuberculosis
Format: functional

Row | Structure (SMILES) | MIC [µg/mL]
1 | FC(F)(F)Oc1ccc(CO[C@@H]2COc3nccn3C2)cc1 | 0.039 to 0.531 (≈ 0.124 to 1.69 µM)
2 | [O-]/[N+](O)=C1/CN2C[C@H](OCc3ccc(OC(F)(F)F)cc3)COC2=N1 | 0.039 to 0.531 (≈ 0.108 to 1.47 µM)
3 | O=[N+]([O-])C1CN2C[C@H](OCc3ccc(OC(F)(F)F)cc3)COC2=N1 (stereo partly drawn) | 0.039 to 0.531 (≈ 0.108 to 1.47 µM)
